What was measured:
Conditions in all cases: deblocked single compounds
E. coli imp- = assay: Antimicrobial assay (MIC), E. coli imp-; type: cell-based, Escherichia coli
Description: In this assay, the strain E. coli imp- obtained from Spenser Bensen (Sampson., B. A., Misra, R. & Benson, S. A. (1989), Genetics, 122, 491-501, Identification and characterization of a new gene of Escherichia coli K-12 involved in outer membrane permeability) is used. To initiate the exponential phase of bacterial growth prior to the assay, a sample of bacteria is grown overnight at 37° C. in Luria broth. This bacteria is then used to reinoculate sample wells of 96-well microtiter plates. The assays are carried out in the 96-well microtiter plates in 150 μL volume with approximately 1×10^6 cells per well.
Bacteria in Luria broth (75 μL) is added to the compound mixtures in solution in 75 μL water in the individual well of the microtiter plate. Final concentrations of the compound mixtures are 25 μM, 10 μM and 1 μM. Each concentration of the compound mixtures are assayed in triplicate. The plates are incubated at 37° C. and growth monitored over a 24 hour period by measuring the optical density at 595 nm using a BioRad model 3550 UV microplate reader. The percentage of growth relative to a well containing no compound is determined. […]
Libraries in accordance with the present invention have been tested for antibacterial activity utilizing assays that determine the minimum inhibitory concentration (MIC). […] Activity has been detected in a number of libraries of the present invention.

Entercoccus hirae = assay: Antimicrobial assay (MIC), Entercoccus hirae; type: cell-based
Escherichia coli = assay: Antimicrobial assay (MIC), Escherichia coli; type: cell-based
Staphylococcus aureus = assay: Antimicrobial assay (MIC), Staphylococcus aureus; type: cell-based
Description: In this assay, the strain S. aureus ATCC 25923 (American Type Culture Collection) is used in the bioassay. To initiate the exponential phase of bacterial growth prior to the assay, a sample of bacteria is grown overnight at 37° C. in typtocase soy broth (BBL). This bacteria is then used to reinoculate sample wells of 96-well microtiter plates. The assays are carried out in the 96-well microtiter plates in 150 μL volume with approximately 1×10^6 cells per well.
Bacteria in typtocase soy broth (75 μL) is added to the compound mixtures in solution in 75 μL water/4% DMSO in the individual well of the microtiter plate. Final concentrations of the compound mixtures are 25 μM, 10 μM and 1 μM. Each concentration of the compound mixtures are assayed in triplicate. The plates are incubated at 37° C. and growth monitored over a 24 hour period by measuring the optical density at 595 nm using a BioRad model 3550 UV microplate reader. The percentage of growth relative to a well containing no compound is determined. Ampicillin and tetracycline antibiotic positive controls are concurrently tested in each screening assay.

Streptococcus pyogenes = assay: Antimicrobial assay (MIC), Streptococcus pyogenes; type: cell-based
Klebsiella pneumoniae = assay: Antimicrobial assay (MIC), Klebsiella pneumoniae; type: cell-based

Substance	minimum inhibitory activity, E. coli. imp- (E. coli imp-) [µM]	minimum inhibitory activity, Entercoccus hirae (Entercoccus hirae) [µM]	minimum inhibitory activity, Escherichia coli (Escherichia coli) [µM]	minimum inhibitory activity, Staphylococcus aureus (Staphylococcus aureus) [µM]	minimum inhibitory activity, Streptococcus pyogenes (Streptococcus pyogenes) [µM]	minimum inhibitory activity, Klebsiella pneumoniae (Klebsiella pneumoniae) [µM]
6-[(2-Aminobenzothiazole acetyl)piperazinyl]-2-[(m-chlorobenzyl)-piperazinyl]-N9-[(N′-t-Boc-N″-acetyl)piperazinyl]purine [Compound 46]	3 to 6	3 to 6	50 to 100	3 to 6	3 to 6	3 to 6
6-[(2-aminobenzothiazole acetyl)piperazinyl]-2-[(N-m-triflouromethylbenzyl)piper-azinyl]-N9-[(N′-t-Boc-N″-acetyl)piperazinyl]purine [Compound 50]	3	3	>100	3 to 6	3 to 6	3 to 6
